The values below are quoted from earlier work in US20050013858A1, “Oral pharmaceutical compositions containing terbinafine” (priority 2001, published 2005).

SMILES strings stand for the structures.

Data set [1] has as its target CYP2D6 (Homo sapiens, UniProt P10635).
[2] abbreviates: steady state, in comparison to the single dose.

Sequence of CYP2D6 (P10635 whole entry): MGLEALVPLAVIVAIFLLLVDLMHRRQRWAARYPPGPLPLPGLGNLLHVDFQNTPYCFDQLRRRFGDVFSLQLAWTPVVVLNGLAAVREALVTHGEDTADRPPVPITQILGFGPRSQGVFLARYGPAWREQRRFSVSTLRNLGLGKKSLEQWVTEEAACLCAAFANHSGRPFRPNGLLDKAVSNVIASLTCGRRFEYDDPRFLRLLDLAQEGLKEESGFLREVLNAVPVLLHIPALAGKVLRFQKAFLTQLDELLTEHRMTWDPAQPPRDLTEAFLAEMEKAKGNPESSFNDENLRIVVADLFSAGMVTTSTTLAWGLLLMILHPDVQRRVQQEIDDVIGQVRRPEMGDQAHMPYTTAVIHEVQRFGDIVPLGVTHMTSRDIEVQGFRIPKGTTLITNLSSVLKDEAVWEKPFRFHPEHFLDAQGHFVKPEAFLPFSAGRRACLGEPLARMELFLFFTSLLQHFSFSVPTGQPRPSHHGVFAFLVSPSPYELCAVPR

Take `CN(C/C=C/C#CC(C)(C)C)Cc1cccc2ccccc12` [terbinafine]: in data set [1], the “inhibition of CYP2D6” value was “potent inhibitor”. Further, for the setting “administered with a fat-rich meal”, the “increase in AUC” value is reported as 42%. Moreover, for the setting “in vivo”, the effective half-life result is “ca. 36 hours”. The reduction of clearance entry (patients with renal impairment (creatinine clearance ≤50 ml/min) or hepatic cirrhosis) is “approximately 50%”. Moreover, the “area under the curve over 24 hours (AUC)” value (single 250 mg terbinafine dose) is listed as “about 4.76 microgram.hour/millilitre”. For the same molecule, under setting [2], the “factor of AUC increase in steady state versus single dose” value is recorded as 2.5 and the “increase of Cmax in steady state versus single dose” value was 25%.
